Experimental data published in patent US20230372367A1 (GW Research Limited, priority 2020, published 2023).
Entries after “also recorded” stand apart in the source; their conditions may differ.

Legend:
Assay type in all cases: in vivo, human
[1] = system: focal seizures with impairment in patients diagnosed with encephalocele; assay: Open label, expanded-access program: frequency of focal seizures with impairment; design: Seizure frequency, Focal with impairment: unit not given here
Protocol: (§1) Subjects were required to be on one or more AEDs at stable doses for a minimum of two weeks prior to baseline and to have stable vagus nerve stimulation (VNS) settings and ketogenic diet ratios for a minimum of four weeks prior to baseline.
(§2) Modifications were made to concomitant AEDs as per clinical indication.
(§3) Seizure frequency, intensity, and duration were recorded by caregivers in a diary during a baseline period of at least 28 days. Changes in seizure frequency relative to baseline were calculated after at least 2 weeks and at defined timepoints of treatment.
(§4) Patients may be defined as responders if they had more than 50% reduction in seizure frequency compared to baseline. The percent change in seizure frequency was calculated as follows: […]
(§5) The percent change of seizure frequency may be calculated for any time interval where seizure number has been recorded. For the purpose of this example the percent change of seizure frequency for the end of the treatment period was calculated as follows: […]

[2] = system: seizures associated with encephalocele; assay: Open label, expanded-access program: seizures overall; conditions: two patients
Protocol: as §1
(§6) A maximum dose of 50 mg/kg/day could be utilised for patients who were tolerating the medication but had not achieved seizure control; these patients had further weekly titration by 5 mg/kg/day.
as §2, §3, §4, §5

[3] = system: focal seizures with secondary generalisation in patients diagnosed with encephalocele; assay: Open label, expanded-access program: frequency of focal seizures with secondary generalisation; conditions: Patient 2, baseline 85.0
Protocol: as §1, §6, §2, §3, §4, §5

[4] = system: absence seizures in patients diagnosed with encephalocele; assay: Open label, expanded-access program: absence seizure frequency; conditions: for Seizure frequency, Absence: baseline 6.8
Protocol: as §1, §6, §2, §3, §4, §5

C=C(C)[C@@H]1CCC(C)=C[C@H]1c1c(O)cc(CCCCC)cc1O [CBD, cannabidiol]
Seizure frequency, Focal with impairment ([1]; Patient 1, 4 weeks, CBD 25.0 mg/kg/day, baseline 92.5): 104.0 | Seizure frequency, Focal with impairment ([1]; Patient 1, 8 weeks, CBD 30.0 mg/kg/day, baseline 92.5): 92.8 | Seizure frequency, Focal with impairment ([1]; Patient 1, 12 weeks, CBD 25.0 mg/kg/day, baseline 92.5): 98.0 | Seizure frequency, Focal with impairment ([1]; Patient 1, 24 weeks, CBD 15.0 mg/kg/day, baseline 92.5): 93.1 | Seizure frequency, Focal with impairment ([1]; Patient 1, 60 weeks, CBD 15.0 mg/kg/day, baseline 92.5): 95.0 | Seizure frequency, Focal with impairment ([1]; Patient 2, 2 weeks, CBD 10.0 mg/kg/day, baseline 6.0): 10.0 | Seizure frequency, Focal with impairment ([1]; Patient 2, 4 weeks, CBD 20.0 mg/kg/day, baseline 6.0): 6.8 | Seizure frequency, Focal with impairment ([1]; Patient 2, 8 weeks, CBD 25.0 mg/kg/day, baseline 6.0): 13.5 | Seizure frequency, Focal with impairment ([1]; Patient 2, 12 weeks, CBD 25.0 mg/kg/day, baseline 6.0): 25.1 | Seizure frequency, Focal with impairment ([1]; Patient 2, 16 weeks, CBD 25.0 mg/kg/day, baseline 6.0): 14.6 | Seizure frequency, Focal with impairment ([1]; Patient 2, 24 weeks, CBD 25.0 mg/kg/day, baseline 6.0): 12.9 | Seizure frequency, Focal with impairment ([1]; Patient 2, 48 weeks, CBD 46.0 mg/kg/day, baseline 6.0): 14.5 | Seizure frequency, Focal with impairment ([1]; Patient 2, 60 weeks, CBD 24.0 mg/kg/day, baseline 6.0): 18.1 | Seizure frequency, Focal with impairment ([1]; Patient 2, 72 weeks, CBD 25.0 mg/kg/day, baseline 6.0): 13.4 | Seizure frequency, Focal with impairment ([1]; Patient 2, 84 weeks, CBD 25.0 mg/kg/day, baseline 6.0): 9.8 | Seizure frequency, Focal with impairment ([1]; Patient 2, 96 weeks, CBD 25.0 mg/kg/day, baseline 6.0): 22.9 | Seizure frequency, Focal with impairment ([1]; Patient 2, 108 weeks, CBD 20.0 mg/kg/day, baseline 6.0): 9.4 | Seizure frequency, Focal with impairment ([1]; Patient 2, 120 weeks, CBD 20.0 mg/kg/day, baseline 6.0): 11.3 | Seizure frequency, Focal with impairment ([1]; Patient 2, 144 weeks, CBD 22.0 mg/kg/day, baseline 6.0): 4.8 | reduction in focal seizures with impairment over the treatment period ([1]; Patient 2, treated for 144 weeks, relative to baseline): 20% | effect on frequency of focal seizures with impairment (in words) ([1]; patients with encephalocele): effective in reducing the frequency; also recorded: significant reduction | effect on number of seizures associated with encephalocele (in words) [2]: significantly reduce the number of seizures | reductions in seizures over period of treatment ([2]; absence and focal seizures with impairment, relative to baseline): 20-100% | Seizure frequency, Focal with secondary generalisation ([3]; 2 weeks, CBD 10.0 mg/kg/day): 90.0 | Seizure frequency, Focal with secondary generalisation ([3]; 4 weeks, CBD 20.0 mg/kg/day): 28.8 | Seizure frequency, Focal with secondary generalisation ([3]; 8 weeks, CBD 25.0 mg/kg/day): 90.2 | Seizure frequency, Focal with secondary generalisation ([3]; 12 weeks, CBD 25.0 mg/kg/day): 197.9 | Seizure frequency, Focal with secondary generalisation ([3]; 16 weeks, CBD 25.0 mg/kg/day): 212.8 | Seizure frequency, Focal with secondary generalisation ([3]; 24 weeks, CBD 25.0 mg/kg/day): 145.6 | Seizure frequency, Focal with secondary generalisation ([3]; 48 weeks, CBD 46.0 mg/kg/day): 143.1 | Seizure frequency, Focal with secondary generalisation ([3]; 60 weeks, CBD 24.0 mg/kg/day): 141.0 | Seizure frequency, Focal with secondary generalisation ([3]; 72 weeks, CBD 25.0 mg/kg/day): 148.6 | Seizure frequency, Focal with secondary generalisation ([3]; 84 weeks, CBD 25.0 mg/kg/day): 143.1 | Seizure frequency, Focal with secondary generalisation ([3]; 96 weeks, CBD 25.0 mg/kg/day): 117.8 | Seizure frequency, Focal with secondary generalisation ([3]; 108 weeks, CBD 20.0 mg/kg/day): 119.1 | Seizure frequency, Focal with secondary generalisation ([3]; 120 weeks, CBD 20.0 mg/kg/day): 146.6 | Seizure frequency, Focal with secondary generalisation ([3]; 144 weeks, CBD 22.0 mg/kg/day): 91.1 | Seizure frequency, Absence ([4]; Patient 1, 2 weeks, CBD 15.0 mg/kg/day): 6.0 | Seizure frequency, Absence ([4]; Patient 1, 4 weeks, CBD 25.0 mg/kg/day): 8.0 | Seizure frequency, Absence ([4]; Patient 1, 8 weeks, CBD 30.0 mg/kg/day): 0 | Seizure frequency, Absence ([4]; Patient 1, 12 weeks, CBD 25.0 mg/kg/day): 0 | Seizure frequency, Absence ([4]; Patient 1, 24 weeks, CBD 15.0 mg/kg/day): 1.6 | Seizure frequency, Absence ([4]; Patient 1, 36 weeks, CBD 10.0 mg/kg/day): 0 | Seizure frequency, Absence ([4]; Patient 1, 48 weeks, CBD 10.0 mg/kg/day): 0 | Seizure frequency, Absence ([4]; Patient 1, 60 weeks, CBD 15.0 mg/kg/day): 0 | Seizure frequency, Absence ([4]; Patient 1, 84 weeks, CBD 15.0 mg/kg/day): 0 | seizure freedom from absence seizures ([4]; Patient 1, after 36 weeks of treatment): completely seizure free from absence seizures | reduction in absence seizures over the treatment period ([4]; Patient 1, treated for 144 weeks, relative to baseline): 100% | effect on frequency of absence seizures (in words) ([4]; patients with encephalocele): effective in reducing the frequency; also recorded: significant reduction
